{
  "source": "patent US20220251092A1",
  "about": "“CASEIN KINASE 1EPSILON INHIBITOR, PHARMACEUTICAL COMPOSITION AND APPLICATION THEREOF” (HANGZHOU HEALZEN THERAPEUTICS CO., LTD., priority 2019, published 2022)",
  "key": {"CK1ε [1]": {"molecular_target": "T1, CK1ε (Homo sapiens, UniProt P49674)", "T1 sequence (P49674 whole entry)": "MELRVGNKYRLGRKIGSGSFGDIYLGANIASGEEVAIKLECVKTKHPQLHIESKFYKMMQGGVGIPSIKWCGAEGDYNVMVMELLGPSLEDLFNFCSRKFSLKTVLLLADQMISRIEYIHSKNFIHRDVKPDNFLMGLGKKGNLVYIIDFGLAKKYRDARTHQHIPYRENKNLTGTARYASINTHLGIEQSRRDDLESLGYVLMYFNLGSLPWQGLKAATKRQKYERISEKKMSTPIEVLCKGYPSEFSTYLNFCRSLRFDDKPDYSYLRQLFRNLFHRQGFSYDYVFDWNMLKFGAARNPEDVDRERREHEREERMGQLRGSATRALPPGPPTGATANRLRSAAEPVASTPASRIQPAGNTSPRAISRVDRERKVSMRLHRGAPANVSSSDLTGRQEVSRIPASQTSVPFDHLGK", "conditions": "cited from earlier work"}, "Karpas299 cells": {"system": "Karpas299 cells", "experiment": "In-vitro anti-tumor activity, Karpas299 cells, CellTiter-Glo", "type": "cell-based", "conditions": "Homo sapiens, KARPAS-299, Karpas299, 72h", "procedure": "In-vitro anti-tumor activities of the synthesized compounds were determined using Human Non-Hodgkin's Ki-positive Large Cell Lymphoma (Karpas299) cell strain:\nDrug preparation method: The drugs were dissolved in DMSO to make stock solutions of 10 mM and diluted in a certain ratio to obtain 7 different concentrations (test concentration: 100×).\nIn vitro culture of tumor cells: The selected Karpas299 cells were incubated in a 500 CO2 cell culture incubator at 37° C. using RPMI-1640^+ fetal bovine serum medium. Four thousand cells/100 μl/well were seeded in a 96-well plate and incubated overnight in a 500 CO2 cell incubator at 37° C. Five μl of the compounds were dispensed in each well at final concentrations of 10 μM, 2.5 μM, 0.625 μM, 0.15625 μM, 0.039063 μM, 0.0097656 μM and 0.0024414 μM, and incubation was performed together for 72h in a 5% CO2 cell incubator at 37° C. with DMSO (0.10%) as controls. After 72h, the CellTiter-Glo buffer and reaction substrate were taken out of the fridge and equilibrated to room temperature. The buffer was then poured into a brown bottle containing the substrate. The bottle was turned up and down so that the substrate powder was fully dissolved. […] A white sealing film was attached to the bottom of the well plate, and the chemiluminescence signal of each well was detected with an Enspire microplate reader. […]"}, "OCI-LY10 cells": {"system": "OCI-LY10 cells", "experiment": "In-vitro anti-tumor activity, OCI-LY10 cells, CCK-8", "type": "cell-based, human", "conditions": "for IC50: Homo sapiens, OCI-LY10, 72h, CCK-8", "procedure": "The in-vitro anti-tumor activities of the synthesized compounds were determined using a diffuse large B-cell lymphoma (OCI-LY10) cell strain:\nDrug preparation method: The drug was dissolved in DMSO to make a stock solution of 10 mM and diluted in a certain ratio to obtain 7 different concentrations (test concentration: 100×).\nIn vitro culture of tumor cells: The selected OCI-LY10 cells were incubated with a medium of IMDM+fetal bovine serum in a 5% CO2 cell culture incubator at 37° C., and were passaged when the cell density grew to 70-90% (adherent cells were passaged after digestion with Duck's EDTA) for later experiments as needed. Four thousand cells/200 μl/well were seeded in a 96-well plate and incubated overnight in a 5% CO2 cell incubator at 37° C. Two μl of the compounds were dispensed in each well at final concentrations of […], and incubation was performed together for 72h in a 5% CO2 cell incubator at 37° C. with DMSO (2%) as control. After 72h, 20 μl of CCK-8 solution was added and the plate was placed in a 5% CO2 cell culture incubator at 37° C. for 4h. Wells with the corresponding amounts of cell culture medium and CCK-8 solution but without cells were used as blank controls. The absorbance (OD values) was measured at 450 nm using an enzyme marker, and the obtained data were used to calculate the IC50."}, "OCI-LY10 xenograft tumor": {"system": "OCI-LY10 xenograft tumor", "experiment": "In vivo pharmacodynamic study, OCI-LY10 subcutaneous xenograft in SCID mice", "parameters": "species or system SCID mouse", "conditions": "combinations with 17a 6 mg/kg PO QD", "procedure": "OCI-LY10 cells were cultured in an IMDM medium containing 20% FBS and maintained in a 5% CO2 incubator at 37° C. with saturated humidity. OCI-LY10 cells of logarithmic phase were collected and resuspended in an IMDM basic medium containing 50% Matrigel, and the cell concentration was adjusted to 5×10^7/ml. Subcutaneous inoculation of 0.1 ml of the cell suspension was performed aseptically in the right dorsum of mice at a concentration of 5×10^6/0.1 ml/mouse. Once the tumor volume reached about 150 mm^3, the animals were randomly grouped according to tumor volume so that the difference in tumor volume between the groups was less than 10% of the mean value. The date of grouping was recorded as Day 0, and drug administration was started based on the body weight of the animals. During drug administration, body weight of certain animals decreased by more than 15% compared to Day 0 (BWL≥15%), drug administration was discontinued for these animals until their body weight recovered (BWL<15%). The body weight and tumor volume of the animals were measured twice a week during the experiment, and clinical signs were observed and recorded daily.\nThe efficacy in terms of tumor volume was evaluated by the relative tumor proliferation rate T/C ratio, and T/C (%) was calculated as TRTV/CRTV[…], where TRTV is the relative tumor volume (RTV) of the treatment group and CRTV is the RTV of the negative control group. The RTV was calculated as Vt/V0, where V0 is the tumor volume at the time of grouping and Vt is the tumor volume at each measurement. The drug is considered effective with T/CP≤40% according to NMPA guidelines.\nThe efficacy in terms of tumor weight was evaluated by TGI (tumor weight inhibition) values, TGI 0%=(TWC−TWT)/TWC×[…], where TWC is tumor weight of control group, and TWT is tumor weight of treatment group. The drug is considered effective with TGI≥58% according to NIH guidelines."}, "CK1ε [2]": {"molecular_target": "T1, CK1ε", "experiment": "CK1ε kinase activity assay (Caliper, FAM-labelled polypeptide)", "type": "biochemical", "procedure": "The in-vitro assay of inhibitory activity of the compound herein against CK1ε kinase was:\n(1) preparation of 1× kinase basic buffer and stop buffer: • 1×kinase basic buffer: 50 mM HEPES, pH 7.5; and 0.0015% Brij-35; • stop buffer: 100 mM HEPES, pH 7.5; 0.015% Brij-35; 0.2% Coating Reagent #3; and 50 mM EDTA.\n(2) preparation of the test compound: • a 50× (“n×” represents dilution factor, same hereafter) stock solution of the compound with DMSO (10 mM, DMSO) to obtain stock solution I for use; […] of stock solution I was placed in a 96-well plate, each compound sample was diluted by 5-fold serial dilution till 10 concentrations was obtained while ensuring 10 μl of drug solution in each well; meanwhile, 100 μl of DMSO was used as a blank control group and a negative control group without enzyme substrate; • a separate 96-well plate was prepared, and to 10 μl of the above compound,\n90 μl of 1× kinase foundation buffer was added, mixed well for 10 min to obtain a mixture."}, "[3]": {"experiment": "Bioavailability study in rats", "type": "in vivo, SD rats", "conditions": "rat; for AUC(0-t) / Cmax / Tmax / bioavailability: Sprague-Dawley, plasma; for bioavailability: PO 10 mg/kg vs IV 1 mg/kg of II-A-7a", "procedure": "SD rats were used as the experimental animals, to which drugs of 10 mg/kg were administered by gavage and 1 mg/kg by tail intravenous injection. […] Whole blood (0.3 ml) was collected, 0.1 ml of plasma was separated by centrifugation at 2000 g for 10 min, and the samples were analyzed by LC-MS/MS."}, "[4]": {"conditions": "Table 5, 50 mg/kg PO QD Day 0-38"}, "[5]": {"conditions": "Table 4, 100 mg/kg PO QD Day 0-38"}},
  "note": "Where two headings read alike, the source gives them in different places.",
  "data": [
    {"smiles": "CC[C@@H](c1nc2cccc(F)c2c(=O)n1-c1ccccc1)n1nc(-c2ccc(OC(C)C)c(F)c2)c2c(N)ncnc21", "note": "[CUX-03166]", "values": [
      {"measurement": "IC50", "setting": "CK1ε [1]; literature values in WO2017079558A1, read-out: CK1ε (IC50)", "result": 81200, "unit": "nM"}
    ]},
    {"smiles": "CC(C)Oc1ccc(-c2nn([C@@H](C)c3nc4cccc(F)c4c(=O)n3-c3ccccc3)c3ncnc(N)c23)cc1F", "note": "[CUX-031723]", "values": [
      {"measurement": "IC50", "setting": "CK1ε [1]; WO2017079558A1, read-out: IC50 of CK1ε", "result": 9360, "unit": "nM"}
    ]},
    {"smiles": "COc1ccc(-c2nn([C@@H](C)c3nc4ccccc4c(=O)n3-c3ccccc3)c3ncnc(N)c23)c(F)c1F", "note": "[II-A-1a, (S)-2-(1-(4-amino-3-(2,3-difluoro-4-methoxyphenyl)-1H-pyrazolo[3,4-d]pyrimidin-1-yl)ethyl)-3-phenylquinazolin-4(3H)-one]", "values": [
      {"measurement": "IC50", "setting": "Karpas299 cells", "result": 988, "unit": "nM"},
      {"measurement": "IC50", "setting": "OCI-LY10 cells; read-out: IC50", "result": 112, "unit": "nM"},
      {"measurement": "RTV Day 39", "setting": "OCI-LY10 xenograft tumor; [4]", "result": "1.69 ± 0.27"},
      {"measurement": "T/C (%) Day 39", "setting": "OCI-LY10 xenograft tumor; [4]", "result": 23.12, "unit": "%"},
      {"measurement": "TGI (%)", "setting": "OCI-LY10 xenograft tumor; [4]", "result": 77.46, "unit": "%"},
      {"measurement": "Tumor weight", "setting": "OCI-LY10 xenograft tumor; [4]", "result": "0.270 ± 0.043", "unit": "g"},
      {"measurement": "IC50", "setting": "CK1ε [2]", "result": 108, "unit": "nM"}
    ]},
    {"smiles": "COc1ccc(-c2nn(C(C)c3nc4cccc(Cl)c4c(=O)n3-c3ccccc3)c3ncnc(N)c23)c(F)c1F", "note": "(stereo not drawn) [II-A-7, 2-(1-(4-amino-3-(2,3-difluoro-4-methoxyphenyl)-1H-pyrazolo[3,4-d]pyrimidin-1-yl)ethyl)-5-chloro-3-phenylquinazolin-4(3H)-one]", "values": [
      {"measurement": "IC50", "setting": "OCI-LY10 cells; read-out: IC50", "result": 22, "unit": "nM"},
      {"measurement": "IC50", "setting": "OCI-LY10 cells; read-out: IC50 value", "result": 22, "unit": "nM"},
      {"measurement": "fold increase of OCI-LY10 proliferation inhibitory activity", "setting": "OCI-LY10 cells; compared to compound C", "result": 123, "unit": "fold"},
      {"measurement": "RTV Day 39", "setting": "OCI-LY10 xenograft tumor; [5]", "result": "2.23 ± 0.15"},
      {"measurement": "T/C (%) Day 39", "setting": "OCI-LY10 xenograft tumor; [5]", "result": 32.35, "unit": "%"},
      {"measurement": "TGI (%)", "setting": "OCI-LY10 xenograft tumor; [5]", "result": 66.29, "unit": "%"},
      {"measurement": "Tumor weight", "setting": "OCI-LY10 xenograft tumor; [5]", "result": "0.269 ± 0.028", "unit": "g"},
      {"measurement": "IC50", "setting": "CK1ε [2]", "result": 97, "unit": "nM"},
      {"measurement": "fold increase of inhibitory activity against CK1ε", "setting": "CK1ε [2]; compared to compound C", "result": 7.2, "unit": "fold"}
    ]},
    {"smiles": "COc1ccc(-c2nn([C@@H](C)c3nc4cccc(Cl)c4c(=O)n3-c3ccccc3)c3ncnc(N)c23)c(F)c1F", "note": "[II-A-7a, (S)-2-(1-(4-amino-3-(2,3-difluoro-4-methoxyphenyl)-1H-pyrazolo[3,4-d]pyrimidin-1-yl)ethyl)-5-chloro-3-phenylquinazolin-4(3H)-one]", "values": [
      {"measurement": "IC50", "setting": "Karpas299 cells", "result": 855, "unit": "nM"},
      {"measurement": "AUC(0-t)", "setting": "[3]; IV 1 mg/kg", "result": 7200, "unit": "ng·h/mL"},
      {"measurement": "Cmax", "setting": "[3]; IV 1 mg/kg", "result": 1520, "unit": "ng/mL"},
      {"measurement": "AUC(0-t)", "setting": "[3]; PO 10 mg/kg", "result": 5780, "unit": "ng·h/mL"},
      {"measurement": "Cmax", "setting": "[3]; PO 10 mg/kg", "result": 456, "unit": "ng/mL"},
      {"measurement": "Tmax", "setting": "[3]; PO 10 mg/kg", "result": 6, "unit": "h"},
      {"measurement": "bioavailability", "setting": "[3]", "result": 8.02, "unit": "%"},
      {"measurement": "IC50", "setting": "OCI-LY10 cells; read-out: IC50", "result": 10.2, "unit": "nM"},
      {"measurement": "RTV Day 39", "setting": "OCI-LY10 xenograft tumor; [4]", "result": "2.11 ± 0.60"},
      {"measurement": "T/C (%) Day 39", "setting": "OCI-LY10 xenograft tumor; [4]", "result": 28.86, "unit": "%"},
      {"measurement": "TGI (%)", "setting": "OCI-LY10 xenograft tumor; [4]", "result": 72.70, "unit": "%"},
      {"measurement": "Tumor weight", "setting": "OCI-LY10 xenograft tumor; [4]", "result": "0.327 ± 0.048", "unit": "g"},
      {"measurement": "IC50", "setting": "CK1ε [2]", "result": 45, "unit": "nM"}
    ]},
    {"smiles": "COc1ccc(-c2nn([C@@H](C)c3nc4cccc(Cl)c4c(=O)n3-c3ccccc3)c3ncnc(N)c23)c(F)c1F.O=S(=O)(O)O", "note": "[II-D-6, (S)-2-(1-(4-amino-3-(2,3-difluoro-4-methoxyphenyl)-1H-pyrazolo[3,4-d]pyrimidin-1-yl)ethyl)-5-chloro-3-phenylquinazolin-4(3H)-one sulfate]", "values": [
      {"measurement": "AUC(0-t)", "setting": "[3]; PO 10 mg/kg", "result": 21500, "unit": "ng·h/mL"},
      {"measurement": "Cmax", "setting": "[3]; PO 10 mg/kg", "result": 2130, "unit": "ng/mL"},
      {"measurement": "Tmax", "setting": "[3]; PO 10 mg/kg", "result": 1.67, "unit": "h"},
      {"measurement": "bioavailability", "setting": "[3]", "result": 29.8, "unit": "%"},
      {"measurement": "increase in bioavailability", "setting": "[3]; salt vs compound in the free state (II-A-7a)", "result": 3.7, "unit": "fold"}
    ]}
  ]
}
